Test results from patent US20250136592A1, “C-LINKED INHIBITORS OF ENL/AF9 YEATS” (Bridge Medicines, priority 2021, published 2025).
Where two headings read alike, the source gives them in different places.

Tests used:
[1] = test system: MV4:11 (MLL-AF4 MLL) cells; experiment: Cell viability assay (CellTiter-Glo), 12 days; format: cell-based; details: MV4;11 cells, 12 day, read-out: CTG_MV4, 11 12 DAY_EC50
Protocol: The assays were conducted over 12 days and the cells being split on days 4 and 8. […] Blank wells received cell culture medium. Plates were incubated for 4 days at 37° C. with 5% CO2. On days 4 and day 8 the cells were split and incubated for a further 4 days whilst an aliquot of cells were taken for the CTG readout. For the cell splitting, 270 nL of compounds or DMSO was added to a new 96 well cell culture plate to which 90 μL of medium plus 10 μL of cells from the original assay plate (after mixing) or 100 μL of medium (Blank wells) was added. This was repeated on day 8.
Cell viability was assessed using the CellTiter-Glo® homogeneous luminescent assay kit (Promega, G9243), according to the manufacturer's instructions. This quantifies ATP, which indicates the presence of metabolically active cells. […] The resulting data were analyzed as follows:
where vehicle are cells treated with 0.3% DMSO, Blank is culture medium. IC50 determinations were calculated by fitting the curve using XLfit (v5.3.1.3): Y=Bottom+(Top−Bottom)/(1+10^((LogIC50−X)*HillSlope)).

ENL YEATS domain = ENL YEATS domain (Homo sapiens (Human), UniProt Q03111); experiment: TR-FRET ENL Screening Assay; details: 6xHIS ENL YEATS domain binding to H3K9cr peptide
Protocol: Compounds of the invention were tested in a TR-FRET ENL Screening Assay. TR-FRET (time-resolved fluorescence energy transfer) can be used to quantify ENL YEATS domain binding to a crotonylated histone peptide (H3K9cr, aa1-20). Streptavidin-Europium (Eu) chelate binds the biotinylated peptide, while Anti-6×HIS ULight™ binds 6×HIS-ENL. When Eu chelate is excited at 320 nm, fluorescence resonance energy transfer (FRET) occurs if Eu and ULight are made proximal by ENL binding to the acyl-peptide.
Low control (LC) wells received 5 μL of assay buffer instead of ENL protein. […] The response at each compound concentration minus the LC value was converted to percent inhibition of the vehicle control group response (HC-LC).

Sequence of ENL YEATS domain (Q03111 1-138): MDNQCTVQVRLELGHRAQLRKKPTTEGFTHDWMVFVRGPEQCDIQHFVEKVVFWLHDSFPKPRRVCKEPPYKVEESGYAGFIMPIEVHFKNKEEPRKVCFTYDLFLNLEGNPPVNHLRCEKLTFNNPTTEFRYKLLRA

Row | EC50 ([1]; Homo sapiens, 288 h) [nM] | IC50 (ENL YEATS domain) [nM] | Structure (SMILES) | EC50 [1] [nM]
1 | 3250 | – | Cc1cc2ccc(C(=O)Nc3cc4[nH]c([C@H]5CCCN5C)cc4cn3)cn2n1 [Example 1, 2-methyl-N-{2-[(2R)-1-methylpyrrolidin-2-yl]-1H-pyrrolo[3,2-c]pyridin-6-yl}pyrazolo[1,5-a]pyridine-6-carboxamide] | –
2 | 1320 | – | CN1CCCC1c1nc2cnc(NC(=O)c3ccc4c(cnn4C)c3)cc2[nH]1 (stereo not shown) [Example 2, 1-methyl-N-(2-(1-methylpyrrolidin-2-yl)-1H-imidazo[4,5-c]pyridin-6-yl)-1H-indazole-5-carboxamide] | –
3 | 571 | – | CN1CCC[C@@H]1c1nc2cc(NC(=O)c3ccc4c(cnn4-c4ccncc4)c3)ccc2[nH]1 [Example 3, (R)—N-(2-(1-methylpyrrolidin-2-yl)-1H-benzo[d]imidazol-5-yl)-1-(pyridin-4-yl)-1H-indazole-5-carboxamide] | –
4 | – | 1240 | CN1CCC[C@@H]1c1cc2cnc(NC(=O)c3cc4c(cn3)cnn4C)cc2[nH]1 [Example 5, (R)-1-methyl-N-(2-(1-methylpyrrolidin-2-yl)-1H-pyrrolo[3,2-c]pyridin-6-yl)-1H-pyrazolo[4,3-c]pyridine-6-carboxamide] | –
5 | 101 | 142 | CN1CCC[C@@H]1c1nc2cc(NC(=O)c3cc4cnn(-c5ccncc5)c4cc3F)ccc2[nH]1 [Example 7, (R)-6-fluoro-N-(2-(1-methylpyrrolidin-2-yl)-1H-benzo[d]imidazol-5-yl)-1-(pyridin-4-yl)-1H-indazole-5-carboxamide] | –
6 | 123 | 100 | CN1CCCC[C@@H]1c1cc2cnc(NC(=O)c3ccc4cnn(C)c4c3)cc2[nH]1 [Example 8, 1-methyl-N-[2-[(2R)-1-methylpiperidin-2-yl]-1H-pyrrolo[3,2-c]pyridin-6-yl]indazole-6-carboxamide] | –
7 | – | 200 | CN1CCCCC1c1nc2cc(NC(=O)c3ccc4c(cnn4C)c3)ccc2[nH]1 (stereo not shown) [Example 9, 1-methyl-N-[2-(1-methylpiperidin-2-yl)-1H-1,3-benzodiazol-5-yl]indazole-5-carboxamide] | –
8 | 280 | – | CN1CCC[C@@H]1c1nc2ccc(NC(=O)c3ccc4c(C5CC5)nn(C)c4c3)cc2[nH]1 [Example 10] | –
9 | – | 465 | Cc1noc2ccc(C(=O)Nc3ccc4nc([C@H]5CCCN5C)[nH]c4c3)cc12 [Example 11] | –
10 | 201 | 78 | Cc1noc2cc(C(=O)Nc3ccc4nc(C5CCCN5C)[nH]c4c3)ccc12 (stereo not shown) [Example 12] | –
11 | 359 | – | CN1CCC[C@@H]1c1nc2cc(NC(=O)c3ccc4c(-c5ccncc5)noc4c3)ccc2[nH]1 [Example 13] | –
12 | 4640 | 178 | Cc1noc2cc(C(=O)Nc3ccc4nc([C@H]5CCCN5C)[nH]c4c3)c(F)cc12 [Example 14] | –
13 | 106 | – | CN1CCC[C@@H]1c1nc2ccc(NC(=O)c3cc4cccnc4cc3F)cc2[nH]1 [Example 16] | –
14 | 3250 | – | CN1CCC[C@@H]1c1nc2ccc(NC(=O)c3ccc4onc(C5CC5)c4c3)cc2[nH]1 [Example 17] | –
15 | – | 125 | Cc1noc2c(F)c(C(=O)Nc3ccc4nc([C@H]5CCCN5C)[nH]c4c3)ccc12 [Example 18] | –
16 | – | 200 | CN1CCC[C@@H]1c1nc2cc(NC(=O)c3ccc4c(cnn4-c4ccccn4)c3)ccc2[nH]1 [Example 21] | –
17 | – | 131 | CN1CCC[C@@H]1c1nc2cc(NC(=O)c3ccc4c(cnn4-c4cccnc4)c3)ccc2[nH]1 [Example 22] | –
18 | – | 277 | CN1CCC[C@@H]1c1nc2cc(NC(=O)c3ccc4c(cnn4-c4ccncn4)c3)ccc2[nH]1 [Example 23] | –
19 | – | 181 | CN1CCCC1c1nc2ccc(NC(=O)c3ccc4ncccc4c3)cc2[nH]1 (stereo not shown) [Example 25] | –
20 | 374 | 145 | CN1CCC[C@@H]1c1nc2cc(NC(=O)c3ccc4c(c3)[nH]c(=O)n4C)ccc2[nH]1 [Example 26] | –
21 | 186 | 133 | Cc1ncc2ccc(C(=O)Nc3cc4[nH]c([C@H]5CCCN5C)cc4cn3)cn12 [Example 28] | –
22 | 1120 | 21 | CN1CCC[C@@H]1c1cc2cnc(NC(=O)c3ccc4c(C5CC5)nn(C)c4c3)cc2[nH]1 [Example 29] | –
23 | 39 | 51 | Cc1noc2cc(C(=O)Nc3cc4[nH]c([C@H]5CCCN5C)cc4cn3)ccc12 [Example 30] | –

Row | EC50 ([1]; Homo sapiens, 288 h) [nM] | IC50 (ENL YEATS domain) [nM] | Structure (SMILES) | EC50 [1] [nM]
24 | 91 | 57 | Cc1n[nH]c2ccc(C(=O)Nc3cc4[nH]c([C@H]5CCCN5C)cc4cn3)cc12 [Example 31] | –
25 | 12200 | 58 | Cc1ncn2cc(C(=O)Nc3cc4[nH]c([C@H]5CCCN5C)cc4cn3)ccc12 [Example 32] | –
26 | 1780 | 42 | CN1CCC[C@@H]1c1cc2cnc(NC(=O)c3ccc4[nH]nc(C(F)(F)F)c4c3)cc2[nH]1 [Example 33] | –
27 | 570 | 48 | Cc1cnn2cc(C(=O)Nc3cc4[nH]c([C@H]5CCCN5C)cc4cn3)ccc12 [Example 34] | –
28 | 269 | 114 | CN1CCC[C@@H]1c1cc2cnc(NC(=O)c3ccn4c(C(F)(F)F)ncc4c3)cc2[nH]1 [Example 35] | –
29 | 853 | 43 | Cc1cnn2ccc(C(=O)Nc3cc4[nH]c([C@H]5CCCN5C)cc4cn3)cc12 [Example 36] | –
30 | 47 | 55 | CN1CCC[C@@H]1c1cc2cnc(NC(=O)c3ccc4c(C(F)(F)F)ncn4c3)cc2[nH]1 [Example 37] | –
31 | 87 | 94 | CN1CCC[C@@H]1c1cc2cnc(NC(=O)c3ccc4cnn(C)c4c3)cc2[nH]1 [Example 38] | –
32 | 2780 | 43 | CN1CCC[C@@H]1c1cc2cnc(NC(=O)c3ccc4c(C(F)(F)F)nn(C)c4c3)cc2[nH]1 [Example 39] | –
33 | – | 780 | CN1CCC[C@@H]1c1cc2cnc(NC(=O)c3cnc4c(ccn4C)c3)cc2[nH]1 [Example 44] | –
34 | – | 30 | CN1CCC[C@@H]1c1cc2cnc(NC(=O)c3ccc4c(c3)[nH]c(=O)n4C)cc2[nH]1 [Example 48] | –
35 | – | 25 | COc1nccc2cc(C(=O)Nc3cc4[nH]c([C@H]5CCCN5C)cc4cn3)ccc12 [Example 52] | –
36 | 5290 | – | Cc1nc(C(F)(F)F)c2ccc(C(=O)Nc3cc4[nH]c([C@H]5CCCN5C)cc4cn3)cn12 [Example 53] | –
37 | 220 | – | Cc1nc(C)n2cc(C(=O)Nc3cc4[nH]c([C@H]5CCCN5C)cc4cn3)ccc12 [Example 71] | –
38 | 1420 | – | Cc1ccc2cc(C(=O)Nc3cnc4cc([C@H]5CCCN5C)[nH]c4c3)c(F)cc2n1 [Example 73] | –
39 | 446 | – | CNc1nccc2cc(C(=O)Nc3cc4[nH]c([C@H]5CCCN5C)cc4cn3)ccc12 [Example 79, (R)-1-(methylamino)-N-(2-(1-methylpyrrolidin-2-yl)-1H-pyrrolo[3,2-c]pyridin-6-yl) isoquinoline-6-carboxamide] | –
40 | 187 | – | Cc1nccc2cc(C(=O)Nc3cc4[nH]c([C@H]5CCCCN5C)cc4cn3)ccc12 [Example 80, (R)-1-methyl-N-(2-(1-methylpiperidin-2-yl)-1H-pyrrolo[3,2-c]pyridin-6-yl) isoquinoline-6-carboxamide] | –
41 | 488 | – | CN1CCC[C@@H]1c1cc2cnc(NC(=O)c3ccc4c(c3)nnn4-c3ccncc3)cc2[nH]1 [Example 85] | –
42 | 215 | – | CN1CCCC[C@@H]1c1cc2cnc(NC(=O)c3ccc4nnn(C)c4c3)cc2[nH]1 [Example 91, (R)-1-methyl-N-(2-(1-methylpiperidin-2-yl)-1H-pyrrolo[3,2-c]pyridin-6-yl)-1H-benzo[d][1,2,3]triazole-6-carboxamide] | –
43 | 451 | – | CN1C(=O)Cc2cc(C(=O)Nc3cc4[nH]c([C@H]5CCCCN5C)cc4cn3)ccc21 [Example 95] | –
44 | 146 | – | CN1CCCC[C@@H]1c1cc2cnc(NC(=O)c3ccc4cc(=O)n(C)n4c3)cc2[nH]1 [Example 97] | –
45 | 440 | – | CN1CCCC[C@@H]1c1cc2cnc(NC(=O)c3ccc4c(cnn4C)c3)cc2[nH]1 [Example 98] | –
46 | 202 | – | CN1CCCC[C@@H]1c1cc2cnc(NC(=O)c3ccc4c(=O)n(C)ccc4c3)cc2[nH]1 [Example 100, (R)-2-methyl-N-(2-(1-methylpiperidin-2-yl)-1H-pyrrolo[3,2-c]pyridin-6-yl)-1-oxo-1,2-dihydroisoquinoline-6-carboxamide] | –

Row | Structure (SMILES) | EC50 ([1]; Homo sapiens, 288 h) [nM] | IC50 (ENL YEATS domain) [nM] | EC50 [1] [nM]
47 | CC(O)c1ncc2cc(C(=O)Nc3cc4[nH]c([C@H]5CCCN5C)cc4cn3)ccn12 (stereo partly drawn) [Example 4, 3-(1-hydroxyethyl)-N-(2-((R)-1-methylpyrrolidin-2-yl)-1H-pyrrolo[3,2-c]pyridin-6-yl) imidazo[1,5-a]pyridine-7-carboxamide] | – | 203 | 4370
48 | CN1CCC[C@@H]1c1cc2cnc(NC(=O)c3ccn4c(C5COC5)ncc4c3)cc2[nH]1 [Example 6, (R)—N-(2-(1-methylpyrrolidin-2-yl)-1H-pyrrolo[3,2-c]pyridin-6-yl)-3-(oxetan-3-yl) imidazo[1,5-a]pyridine-7-carboxamide] | – | 106 | 33
